Active and inactive are the calls of the source. No cut-off for these calls is given here.
Key:
MCF7 = experiment: Growth inhibition of human MCF7 cells after 48 hrs by SRB assay; format: functional; details: MCF7, 48 h
NCI-H460 = experiment: Growth inhibition of human NCI-H460 cells after 48 hrs by SRB assay; format: functional; details: NCI-H460, 48 h
SF-268 [1] = experiment: Growth inhibition of human SF268 cells after 48 hrs by SRB assay; format: functional; details: SF-268, 48 h
SF-268 [2] = experiment: Growth inhibition of human SF268 cells at 100 uM after 48 hrs by SRB assay; format: functional, cell-based
Staphylococcus aureus = experiment: Antibacterial activity against Staphylococcus aureus ATCC 6538P at 2.5 ug/spot after 24 hrs by bioautographic agar overlay method; format: functional, organism-based
Escherichia coli = experiment: Antibacterial activity against Escherichia coli ATCC 25922 at 40 ug/spot after 24 hrs by bioautographic agar overlay method; format: functional, organism-based
Pseudomonas aeruginosa = experiment: Antibacterial activity against Pseudomonas aeruginosa ATCC 27853 at 40 ug/spot after 24 hrs by bioautographic agar overlay method; format: functional, organism-based

| SMILES | GI50 (MCF7) [µM] | GI50 (NCI-H460) [µM] | GI50 (SF-268 [1]) [µM] | Activity (SF-268 [2]) | Activity (Staphylococcus aureus) | Activity (Escherichia coli) | Activity (Pseudomonas aeruginosa) |
| --- | --- | --- | --- | --- | --- | --- | --- |
| COc1cccc2c1C(=O)c1c(O)c3c(c(O)c1C2=O)C[C@@](O)(C(=O)CO)C[C@@H]3O[C@H]1C[C@H](N)[C@H](O)[C@H](C)O1 [DOXORUBICIN] | 42.8 | 0.094 | 0.093 |  |  |  |  |
| CC1=C2C=C3CC[C@@H]4C(C)(C)[C@H](O)CC[C@@]4(C)[C@@H]3C[C@H]2OC1=O [HELIOSCOPINOLIDE A] | 67.5 | 72.8 | > 100 | inactive | Active | inactive | inactive |
| CC1=C2C=C3CC[C@@H]4C(C)(C)[C@@H](O)CC[C@@]4(C)[C@@H]3C[C@H]2OC1=O [HELIOSCOPINOLIDE B] | 77 | > 100 | > 100 | inactive | Active | inactive | inactive |
| CC(=O)O[C@H]1[C@H](C)C[C@]2(O)C(=O)/C(C)=C/CC(C)(C)[C@H](OC(C)=O)C[C@@H](OC(=O)c3ccccc3)/C(C)=C/[C@@H]12 [PUBESCENE D] | 37.5 | 37.5 | 90.1 |  |  |  |  |
| C=C1C[C@H](OC(C)=O)C(=O)C(C)(C)/C=C/[C@@H](C)C(=O)[C@@]2(OC(C)=O)C[C@H](C)[C@H](OC(=O)c3ccccc3)[C@]2(O)[C@H]1OC(C)=O [PUBESCENOL] | 69 | 55.6 | 75.2 |  |  |  |  |
